Test results reported in patent publication US11691986B2, “PTEFB inhibiting macrocyclic compounds” (Bayer Aktiengesellschaft, priority 2017, dated 2023).

Columns and labels:
CDK2/CycE = target: T1, CDK2/CycE (Homo sapiens, UniProt P24941); assay: CDK2/CycE high ATP kinase assay (TR-FRET); assay type: biochemical; conditions: 2 mM ATP, Method 2b
T1 construct: GST; purchased ProQinase GmbH (Freiburg, Germany); host or cells: insect cells (Sf9)
Method: 2b. CDK2/CycE High ATP Kinase Assay
CDK2/CycE-inhibitory activity of compounds of the present invention at 2 mM adenosine-tri-phosphate (ATP) was quantified employing the CDK2/CycE TR-FRET (TR-FRET=Time Resolved Fluorescence Energy Transfer) assay as described in the following paragraphs.
Recombinant fusion proteins of GST and human CDK2 and of GST and human CycE, expressed in insect cells (Sf9) and purified by Glutathion-Sepharose affinity chromatography, were purchase from ProQinase GmbH (Freiburg, Germany). As substrate for the kinase reaction biotinylated peptide biotin-Ttds-YISPLKSPYKISEG (C-terminus in amid form) was used which can be purchased e.g. form the company JERINI peptide technologies (Berlin, Germany).
For the assay 50 nl of a 100 fold concentrated solution of the test compound in DMSO was pipetted into either a black low volume 384 well microtiter plate or a black 1536 well microtiter plate (both Greiner Bio-One, Frickenhausen, Germany), 2 μl of a solution of CDK2/CycE in aqueous assay buffer [50 mM Tris/HCl pH 8.0, 10 mM MgCl2, 1.0 mM dithiothreitol, 0.1 mM sodium ortho-vanadate, 0.01% (v/v) Nonidet-P40 (Sigma)] were added and the mixture was incubated for 15 min at 22° C. to allow pre-binding of the test compounds to the enzyme before the start of the kinase reaction. […] The concentration of CDK2/CycE was adjusted depending of the activity of the enzyme lot and was chosen appropriate to have the assay in the linear range, typical concentrations were about 10 ng/ml. The reaction was stopped by the addition of 3 μl of a solution of TR-FRET detection reagents (0.333 μM streptavidine-XL665 [Cisbio Bioassays, Codolet, France] and 1.67 nM anti-RB(pSer807/pSer811)-antibody from BD Pharmingen [#558389] and 2 nM LANCE EU-W1024 labeled anti-mouse IgG antibody [Perkin-Elmer, product no. AD0077, as an alternative a Terbium-cryptate-labeled anti-mouse IgG antibody from Cisbio Bioassays can be used]) in an aqueous EDTA-solution (167 mM EDTA, 0.2% (w/v) bovine serum albumin in 100 mM HEPES pH 7.5).
The resulting mixture was incubated 1 h at 22° C. to allow the formation of complex between the phosphorylated biotinylated peptide and the detection reagents. Subsequently the amount of phosphorylated substrate was evaluated by measurement of the resonance energy transfer from the Eu-chelate to the streptavidine-XL. Therefore, the fluorescence emissions at 620 nm and 665 nm after excitation at 350 nm was measured in a TR-FRET reader, e.g. a Pherastar (BMG Labtechnologies, Offenburg, Germany) or a Viewlux (Perkin-Elmer). The ratio of the emissions at 665 nm and at […] was taken as the measure for the amount of phosphorylated substrate. The data were normalised (enzyme reaction without inhibitor=0% inhibition, all other assay components but no enzyme=100% inhibition).

NCI-H460 cells = assay: Proliferation assay, NCI-H460 (crystal violet); assay type: cell-based; conditions: Homo sapiens, 96 h; NCI-H460, 4 days; read-out: Inhibition of NCI-H460 cell proliferation IC50
Method: Cultivated tumour cells (HeLa, human cervical tumour cells, ATCC CCL-2; NCI-H460, human non-small cell lung carcinoma cells, ATCC HTB-177; DU 145, hormone-independent human prostate carcinoma cells, ATCC HTB-81; HeLa-MaTu-ADR, multidrug-resistant human cervical carcinoma cells, EPO-GmbH Berlin; Caco-2, human colorectal carcinoma cells, ATCC HTB-37; B16F10, mouse melanoma cells, ATCC CRL-6475) were plated at a density of 5,000 cells/well (DU145, HeLa-MaTu-ADR), 3,000 cells/well (NCI-H460, HeLa), 1,500 cells/well (Caco-2), or 1,000 cells/well (B16F10) in a 96-well multititer plate in 200 μL of their respective growth medium supplemented 10% fetal calf serum. After 24 hours, the cells of one plate (zero-point plate) were stained with crystal violet (see below), while the medium of the other plates was supplemented with the test substances in various concentrations (0 μM, as well as in the range of 0.0001-10 μM; the final concentration of the solvent dimethyl sulfoxide was adjusted to 0.1%) using a Hewlett-Packard HP D300 Digital Dispenser. The cells were incubated for 4 days in the presence of test substances. Cell proliferation was determined by staining the cells with crystal violet: the cells were fixed by adding 20 μl/measuring point of an 11% glutaric aldehyde solution for 15 minutes at room temperature. After three washing cycles of the fixed cells with water, the plates were dried at room temperature. The cells were stained by adding 100 μl/measuring point of a 0.1% crystal violet solution (pH 3.0). After three washing cycles of the stained cells with water, the plates were dried at room temperature. The dye was dissolved by adding 100 μl/measuring point of a 10% acetic acid solution. The extinction was determined by photometry at a wavelength of 595 nm. The change of cell number, in percent, was calculated by normalization of the measured values to the extinction values of the zero-point plate (=0%) and the extinction of the untreated (0 Wm) cells (=100%). The IC50 values (inhibitory concentration at 50% of maximal effect) were determined by means of a 4 parameter fit.

IC50 (CDK2/CycE) [nM]	IC50 (NCI-H460 cells) [nM]	Structure (SMILES)
855	33	CC(C)(C)OC(=O)N=S(C)(=O)Cc1cc2cc(c1)OCCCCNc1cc(ccc1F)-c1nc(ncc1F)N2 (racemic) [Example 1, (rac)-tert-butyl [{[3,20-difluoro-13-oxa-5,7,18,25-tetraazatetracyclo[17.3.1.1^2,6.1^8,12]pentacosa-1(23),2(25),3,5,8(24),9,11,19,21-nonaen-10-yl]methyl}(methyl)oxido-λ^6-sulfanylidene]carbamate]
464	–	CC1CCCNc2cc(ccc2F)-c2nc(ncc2F)Nc2cc(CS(C)(=O)=O)cc(c2)O1 (racemic) [Example 8, (rac)-3,20-difluoro-14-methyl-10-[(methylsulfonyl)methyl]-13-oxa-5,7,18,25-tetraazatetracyclo[17.3.1.1^2,6.1^8,12]pentacosa-1(23),2(25),3,5,8(24),9,11,19,21-nonaene]
829	25	CS(=N)(=O)Cc1cc2cc(c1)OCCCNc1cc(ccc1F)-c1nc(ncc1F)N2 (racemic) [Example 3, (rac)-3,19-difluoro-10-[(S-methylsulfonimidoyl)methyl]-13-oxa-5,7,17,24-tetraazatetracyclo[16.3.1.1^2,6.1^8,12]tetracosa-1(22),2(24),3,5,8(23),9,11,18,20-nonaene]
155	9.2	CS(=N)(=O)Cc1cc2cc(c1)OCCCCNc1cc(ccc1F)-c1nc(ncc1F)N2 (racemic) [Example 2, (rac)-3,20-difluoro-10-[(S-methylsulfonimidoyl)methyl]-13-oxa-5,7,18,25-tetraazatetracyclo[17.3.1.1^2,6.1^8,12]pentacosa-1(23),2(25),3,5,8(24),9,11,19,21-nonaene]
